This is an account of results in ChEMBL document CHEMBL3639166, “Heteroaryloxyheterocyclyl compounds as PDE10 inhibitors” (2013).

Structures are written as SMILES.

The experiment deals with T1, cAMP and cAMP-inhibited cGMP 3',5'-cyclic phosphodiesterase 10A (Rattus norvegicus, UniProt Q9QYJ6).
T1 sequence (Q9QYJ6 whole entry): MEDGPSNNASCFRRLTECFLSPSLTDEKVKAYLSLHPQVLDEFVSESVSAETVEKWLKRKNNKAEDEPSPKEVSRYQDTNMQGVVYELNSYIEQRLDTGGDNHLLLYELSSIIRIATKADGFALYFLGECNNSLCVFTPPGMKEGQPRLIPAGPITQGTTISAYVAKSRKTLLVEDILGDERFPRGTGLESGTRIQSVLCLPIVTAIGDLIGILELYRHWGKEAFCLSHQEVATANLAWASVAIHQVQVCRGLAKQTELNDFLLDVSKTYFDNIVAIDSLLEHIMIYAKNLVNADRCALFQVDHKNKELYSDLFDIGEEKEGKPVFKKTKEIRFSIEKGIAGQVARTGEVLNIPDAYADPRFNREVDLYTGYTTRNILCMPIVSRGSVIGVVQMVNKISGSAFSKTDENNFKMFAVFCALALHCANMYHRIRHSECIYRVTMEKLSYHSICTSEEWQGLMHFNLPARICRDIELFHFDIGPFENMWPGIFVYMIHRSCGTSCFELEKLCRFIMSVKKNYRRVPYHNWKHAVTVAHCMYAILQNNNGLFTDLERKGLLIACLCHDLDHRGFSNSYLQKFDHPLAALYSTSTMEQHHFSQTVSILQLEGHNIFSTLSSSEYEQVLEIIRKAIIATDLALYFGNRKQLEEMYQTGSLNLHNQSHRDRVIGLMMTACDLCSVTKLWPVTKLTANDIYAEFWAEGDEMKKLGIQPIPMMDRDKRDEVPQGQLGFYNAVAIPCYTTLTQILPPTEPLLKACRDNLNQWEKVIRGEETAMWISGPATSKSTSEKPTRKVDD
The experiment in a line: Enzyme Inhibition Assay: Enzyme activity: An IMAP TR-FRET assay was used to analyze the enzyme activity (Molecular Devices Corp., Sunnyvale, Calif). (In general: Time-resolved FRET reads energy transfer from a long-lived donor to a nearby acceptor.)

For the compound `O=Cc1ccc(N2CCC(Oc3ncccc3C3CCOCC3)CC2)nc1`, the IC50 (in general, the midpoint of a concentration-inhibition curve) worked out at 1.48 µM. `Fc1ccc(N2CCC(Oc3ncccc3C3CCOCC3)CC2)nc1` gave a half-inhibitory concentration (IC50) of 2.96 µM. `N#Cc1ccc(N2CCC(Oc3ncccc3C3CCOCC3)CC2)nc1` showed an IC50 of 0.828 µM. `FC(F)(F)c1ccc(N2CCC(Oc3ncccc3C3CCOCC3)CC2)nc1` had a concentration for half-maximal inhibition (IC50) of 2.2 µM. The compound `CC(=O)c1ccc(N2CCC(Oc3ncccc3C3CCOCC3)CC2)nc1` displayed an IC50 of 0.384 µM.

As to `Cc1ccc2ccc(N3CCC(Oc4ncccc4C4CCOCC4)CC3)nc2c1`, the IC50 stood at 0.266 µM. The figure for `COC(=O)c1ccc(N2CCC(Oc3ncccc3C3CCOCC3)CC2)nc1` is 0.198 µM. `Cc1ccc2ccc(N3CCC(Oc4nccnc4C4CCOCC4)CC3)nc2c1` had an IC50 of 0.515 µM. This IC50 lies about 2.6-fold higher than the previous one. `Cc1cccc2ccc(N3CCC(Oc4nccnc4C4CCOCC4)CC3)nc12` registered an IC50 of 7.84 µM. This IC50 lies about 15-fold higher than the previous one. `Cc1cc(N2CCC(Oc3nccnc3C3CCOCC3)CC2)nc2ccccc12` came in with an IC50 of 0.125 µM. This IC50 lies about 63-fold lower than the previous one.

Compound `Cc1ccc2nc(N3CCC(Oc4nccnc4C4CCOCC4)CC3)ccc2c1` returned an IC50 of 0.276 µM.

`c1ccc2[nH]c(N3CC[C@H](Oc4nccnc4C4CCOCC4)C3)nc2c1`: 3.93 µM corresponded to half-maximal inhibition (IC50). The figure for `Cc1ccc2nc(N3CCC(Oc4ncccc4C4CCOCC4)CC3)ccc2c1` is 0.472 µM; for `Cc1cc(N2CCC(Oc3ncccc3C3CCOCC3)CC2)nc2ccccc12` it is 0.101 µM; for `Brc1cccnc1OC1CN(c2ccncn2)C1` it is 57.7 µM. Turning to `Brc1cccnc1OC1CN(c2cccnn2)C1`, inhibition was half-maximal at 0.0253 µM (IC50).

Consider `CC(=O)N1CCC(c2nccnc2OC2CCN(c3ccccn3)CC2)CC1`, for which the 50% inhibitory concentration (IC50) came to 2.85 µM. With `CC(=O)N1CCC(c2nccnc2OC2CCN(c3cccc(C)n3)CC2)CC1`, the IC50 was found to be 1.05 µM. Consider `CC(=O)N1CCC(c2nccnc2OC2CCN(c3ccc(C)cn3)CC2)CC1`, for which the midpoint of inhibition, the IC50, lay at 1.62 µM. This IC50 is about 1.5-fold higher than that of the compound before. Then `CC(=O)N1CCC(c2nccnc2OC2CCN(c3cc(C)ccn3)CC2)CC1`, with 0.997 µM; and `CC(=O)N1CCC(c2nccnc2OC2CCN(c3ncccc3C)CC2)CC1`, with 3.01 µM; and `CC(=O)N1CCC(c2nccnc2OC2CCN(c3cccc(Cl)n3)CC2)CC1`, with 0.235 µM. The compound `CC(=O)N1CCC(c2nccnc2OC2CCN(c3ccc(Cl)cn3)CC2)CC1` registered an IC50 of 0.821 µM. This IC50 is about 3.5-fold higher than that of the compound before.

For the compound `CC(=O)N1CCC(c2nccnc2OC2CCN(c3cc(Cl)ccn3)CC2)CC1`, it took 0.096 µM to reach half-maximal inhibition (IC50). Against the preceding compound, the IC50 is about 8.6-fold lower. As to `CC(=O)N1CCC(c2nccnc2OC2CCN(c3ncccc3Cl)CC2)CC1`, 1.44 µM corresponded to half-maximal inhibition (IC50). Against the preceding compound, the IC50 is about 15-fold higher. Turning to `CC(=O)N1CCC(c2cccnc2OC2CCN(c3ccccn3)CC2)CC1`, the IC50 was found to be 1.08 µM. The figure for `CC(=O)N1CCC(c2cccnc2OC2CCN(c3cccc(C)n3)CC2)CC1` is 1.18 µM.

The compound `CC(=O)N1CCC(c2cccnc2OC2CCN(c3ccc(C)cn3)CC2)CC1` registered an IC50 of 1.17 µM. The figure for `CC(=O)N1CCC(c2cccnc2OC2CCN(c3cc(C)ccn3)CC2)CC1` is 1.77 µM; for `CC(=O)N1CCC(c2cccnc2OC2CCN(c3ncccc3C)CC2)CC1` it is 1.49 µM. The figure for `CC(=O)N1CCC(c2cccnc2OC2CCN(c3cccc(Cl)n3)CC2)CC1` is 0.558 µM; for `CC(=O)N1CCC(c2cccnc2OC2CCN(c3ccc(Cl)cn3)CC2)CC1` it is 1.2 µM. The figure for `CC(=O)N1CCC(c2cccnc2OC2CCN(c3ncccc3Cl)CC2)CC1` is 3.58 µM. On to `O=C(OCc1ccccc1)N1CCC(c2nc3ccccc3nc2OC2CN(c3ccc4ccccc4n3)C2)CC1`, for which half-maximal inhibition (IC50) was put at 0.0511 µM. Then `CC(C)(C)OC(=O)N1CCC(c2nc3ccccc3nc2OC2CN(c3ccc4ccccc4n3)C2)CC1`, with 0.115 µM.
